Among the data in ChEMBL document CHEMBL1145128, “New prolyl oligopeptidase inhibitors developed from dicarboxylic acid bis(l-prolyl-pyrrolidine) amides” (J Med Chem, 2003) are IC50, logP and inhibition values, retold here.

Broadly, the IC50 is the concentration at which inhibition is half-maximal. A high value points to lower potency. The logP is the decadic logarithm of the partition coefficient of the neutral form, usually between octanol and water. Lower therefore signals a more hydrophilic compound. Usually inhibition stands for the relative decrease from the control value, in per cent.

Data set [1] addresses Prolyl endopeptidase (Sus scrofa, UniProt P23687).
Description: In vitro inhibition of prolyl oligopeptidase (POP) from pig brain
The nature of data set [2]: Partition coefficient (logP). Format: physicochemical. Conditions: octanol/water.
The target of data set [3] is Prolyl endopeptidase (Sus scrofa) (UniProt P23687). Briefly: Compound was tested for in vitro inhibition of prolyl oligopeptidase (POP) from pig brain at 0.1 mM.
Sequence of Prolyl endopeptidase (Sus scrofa) (P23687 whole entry, looked up): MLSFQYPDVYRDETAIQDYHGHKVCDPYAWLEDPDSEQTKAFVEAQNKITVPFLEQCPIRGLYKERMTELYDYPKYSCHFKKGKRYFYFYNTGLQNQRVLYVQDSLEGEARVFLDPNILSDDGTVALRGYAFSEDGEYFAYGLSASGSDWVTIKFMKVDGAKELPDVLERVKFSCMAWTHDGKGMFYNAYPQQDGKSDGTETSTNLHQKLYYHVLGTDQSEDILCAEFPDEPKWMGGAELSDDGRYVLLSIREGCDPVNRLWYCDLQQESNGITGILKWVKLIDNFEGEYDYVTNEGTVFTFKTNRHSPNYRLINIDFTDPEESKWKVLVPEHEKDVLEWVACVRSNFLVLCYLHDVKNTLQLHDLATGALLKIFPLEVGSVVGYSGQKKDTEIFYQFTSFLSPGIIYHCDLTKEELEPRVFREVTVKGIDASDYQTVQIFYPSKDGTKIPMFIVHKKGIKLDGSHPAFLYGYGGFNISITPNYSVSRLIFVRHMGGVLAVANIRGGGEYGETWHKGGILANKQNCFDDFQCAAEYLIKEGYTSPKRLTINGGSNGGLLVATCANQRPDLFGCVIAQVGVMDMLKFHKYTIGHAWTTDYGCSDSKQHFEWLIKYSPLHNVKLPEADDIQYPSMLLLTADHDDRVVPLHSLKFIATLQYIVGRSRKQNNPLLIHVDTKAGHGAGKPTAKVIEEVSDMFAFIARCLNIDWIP

Sequence of Prolyl endopeptidase (P23687 whole entry): as the sequence (P23687 whole entry, looked up) above

`N#C[C@H]1CCCN1C(=O)[C@@H]1CCCN1C(=O)c1cccc(C(=O)N2CCC[C@@H]2C(=O)C2CCCCC2)c1` gave a 50% inhibitory concentration (IC50) in data set [1] of 0.72 nM. This lies in the sub-nanomolar range.

Turning to `O=C([C@@H]1CCCN1C(=O)c1cccc(C(=O)N2CCC[C@H]2C(=O)N2CCCC2)c1)N1CCCC1`, in data set [2], the logP is -0.2.

For the compound `O=C([C@H]1CCCN1C(=O)c1cccc(C(=O)N2CCC[C@H]2C(=O)N2CCCCCC2)c1)N1CCCC1`, in data set [1], the midpoint of inhibition, the IC50, lay at 23 nM. In other words, the double-digit nanomolar range.

With `C[C@H](NC(=O)c1cccc(C(=O)N[C@H](C)C(=O)N2CCCC2)c1)C(=O)N1CCCC1`, in data set [1], inhibition was half-maximal at 87 nM (IC50).

Take `CC(=O)[C@H]1CCCN1C(=O)c1cccc(C(=O)N2CCC[C@H]2C(=O)N2CCC[C@@H]2C#N)c1`: in data set [1], the IC50 was determined as 4.2 nM. This compound also displayed a logP in data set [2] of -0.6.

On to `CC(C)(CC(=O)N1CCC[C@H]1C(=O)C1CCCC1)CC(=O)N1CCC[C@H]1C(=O)N1CCC[C@H]1C#N`, for which the IC50 in data set [1] was 0.57 nM.

`CSCC[C@H](NC(=O)c1cccc(C(=O)N[C@H](CCSC)C(=O)N2CCCC2)c1)C(=O)N1CCCC1` registered an IC50 in data set [1] of 110 nM.

In data set [1], `O=C(C1CCCC1)[C@H]1CCCN1C(=O)c1cccc(C(=O)N2CCC[C@H]2C(=O)C2CCCC2)c1` displayed an IC50 of 78 nM. The logP in data set [2] worked out at 2.7.

For `CC(=O)[C@H]1CCCN1C(=O)c1cccc(C(=O)N2CCC[C@H]2C(=O)N2CCC[C@@H]2C(=O)CO)c1`, the IC50 in data set [1] was 1.2 nM.

Consider `N#C[C@H]1CCCN1C(=O)[C@@H]1CCCN1C(=O)c1cccc(C(=O)N2CCC[C@@H]2C(=O)c2ccccc2)c1`, for which inhibition in data set [1] was half-maximal at 1.3 nM (IC50). In addition, the logP in data set [2] was 1.1.

As for `CC(=O)[C@H]1CCCN1C(=O)c1cccc(C(=O)N2CCC[C@H]2C(C)=O)c1`, in data set [3], the inhibition was found to be 54%.

Regarding `N#C[C@H]1CCCN1C(=O)[C@@H]1CCCN1C(=O)c1cccc(C(=O)N2CCC[C@@H]2C(=O)C2CCCC2)c1`, the IC50 in data set [1] amounted to 1.1 nM. In addition, the logP in data set [2] was 0.8.

In the case of `O=C(c1ccccc1)[C@H]1CCCN1C(=O)c1cccc(C(=O)N2CCC[C@H]2C(=O)N2CCCC2)c1`, inhibition in data set [1] was half-maximal at 18 nM (IC50). This lies in the double-digit nanomolar range.

As to `COC(=O)[C@H]1CCCN1C(=O)c1cccc(C(=O)N2CCC[C@H]2C(=O)N2CCCC2)c1`, the IC50 in data set [1] is 54 nM. This IC50 lies about 3-fold higher than the previous one.

In data set [1], `CC(C)(C)OC(=O)N1CCN(C(=O)[C@H]2CCCN2C(=O)c2cccc(C(=O)N3CCC[C@H]3C(=O)N3CCCC3)c2)CC1` displayed a half-maximal inhibitory concentration (IC50) of 170 nM.

`COC(=O)[C@H]1CCCN1C(=O)c1cccc(C(=O)N2CCC[C@H]2C(=O)C2CCCC2)c1` yielded a half-maximal inhibitory concentration (IC50) in data set [1] of 640 nM. Against the preceding compound, the IC50 is about 3.8-fold higher.

`O=C(NCC(=O)N1CCCC1)c1cccc(C(=O)NCC(=O)N2CCCC2)c1` had an IC50 in data set [1] of 640 nM.

Turning to `O=C(CO)[C@@H]1CCCN1C(=O)[C@@H]1CCCN1C(=O)c1cccc(C(=O)N2CCC[C@H]2C(=O)N2CCCC2)c1`, in data set [1], the IC50 is 0.39 nM.

Compound `CC(=O)[C@H]1CCCN1C(=O)c1cccc(C(=O)N2CCC[C@H]2C(=O)N2CCCC2)c1` had a half-maximal inhibitory concentration (IC50) in data set [1] of 65 nM.

Take `O=C(CO)[C@H]1CCCN1C(=O)[C@@H]1CCCN1C(=O)c1cccc(C(=O)N2CCC[C@@H]2C(=O)C2CCCC2)c1`: the IC50 in data set [1] stood at 0.61 nM. This compound also returned a logP in data set [2] of 0.2.

`O=C([C@H]1CCCN1C(=O)c1cccc(C(=O)N2CCC[C@H]2C(=O)N2CCNCC2)c1)N1CCCC1` registered an IC50 in data set [1] of 33 nM. In other words, the double-digit nanomolar range.

`CC(C)C(=O)[C@H]1CCCN1C(=O)c1cccc(C(=O)N2CCC[C@H]2C(=O)N2CCC[C@@H]2C#N)c1` registered an IC50 in data set [1] of 1.6 nM. The logP in data set [2] is 0.3.

Take `O=C(C1CCCC1)[C@H]1CCCN1C(=O)c1cccc(C(=O)N2CCC[C@H]2C(=O)N2CCCC2)c1`: half-maximal inhibition in data set [1] (IC50) required 14 nM.

Take `O=C(NCc1ccccc1)[C@@H]1CCCN1C(=O)c1cccc(C(=O)N2CCC[C@@H]2C(=O)N2CCCC2)c1`: the IC50 in data set [1] is 31 nM. This IC50 is about 2.2-fold higher than that of the compound before.

In data set [1], `O=C(N[C@@H](Cc1ccccc1)C(=O)N1CCCC1)c1cccc(C(=O)N[C@H](Cc2ccccc2)C(=O)N2CCCC2)c1` had an IC50 of 81 nM.

Regarding `C[C@H](NC(=O)c1cccc(C(=O)N2CCC[C@H]2C(=O)N2CCCC2)c1)C(=O)N1CCCC1`, the IC50 in data set [1] was found to be 39 nM.

`CC(C)(CC(=O)N1CCC[C@H]1C(=O)C1CCCC1)CC(=O)N1CCC[C@H]1C(=O)N1CCC[C@H]1C(=O)CO` returned a logP in data set [2] of 0.7.
